One compound from patent US20150031541A1 (priority 2012, published 2015) can be followed below.

The test system of this test is Plasmopara viticola. Put plainly: Plasmopara viticola/Grape/Curative (Grape Downy Mildew). It counts as in vivo. The conditions noted are these: 200 ppm; grape seedlings cv. Gutedel, inoculated one day before application; compared to untreated. On the procedure: Plasmopara viticola/Grape/Curative (Grape Downy Mildew)
5-week-old grape seedlings cv. Gutedel are inoculated by spraying a sporangia suspension on their lower leaf surface one day before application. The inoculated grape plants are sprayed in a spray chamber with the formulated test compound diluted in water. The inoculated test plants are incubated at 22° C. and 100% rh in a greenhouse and the percentage leaf area covered by disease is assessed when an appropriate level of disease appears on untreated check plants (4-6 days after application).

For the compound `CSC1CN(C(=O)Cn2nc(C(F)F)cc2C(F)F)CCC1c1nc(C2=NOC(c3c(F)cccc3F)C2)cs1` (stereo not shown) [I.az.223, 2-[3,5-bis(difluoromethyl)pyrazol-1-yl]-1-[4-[4-[5-(2,6-difluorophenyl)-4,5-dihydroisoxazol-3-yl]thiazol-2-yl]-3-methylsulfanyl-1-piperidyl]ethanone], the disease control result is recorded as “at least 80%”.
